The NIST ThermoML archive (doi:10.1016/j.jct.2008.05.014)
± gives the expanded uncertainty stated by the source.

Legend:
[1] = refractive index (Na D-line) (dimensionless); settings: 298.15 K; 101.33 kPa; Liquid; Standard Abbe refractometry
[2] = Liquid; for speed of sound: Pulse-echo method
[3] = xn = mol fraction of the nth substance listed; settings: Liquid, x1 = 1; for speed of sound: Pulse-echo method

CCCCCCC [heptane]
Settings	refractive index
[1]	1.3853 ± 0.0008

[2]
Settings	mass density [kg/m3]	speed of sound [m/s]
292.83 K, 101 kPa	–	1153.2 ± 1.6
292.88 K, 45590 kPa	–	1417.7 ± 2.4
292.88 K, 60790 kPa	–	1485.5 ± 2.5
292.88 K, 75990 kPa	–	1547.2 ± 2.5
292.88 K, 91180 kPa	–	1605 ± 2.6
292.88 K, 101320 kPa	–	1641.2 ± 2.6
292.89 K, 15200 kPa	–	1257 ± 2.4
292.89 K, 30390 kPa	–	1342.4 ± 2.4
293.15 K, 101 kPa	683.803 ± 0.71	–
298.12 K, 101 kPa	–	1130.1 ± 1.6
298.15 K, 101 kPa	679.548 ± 0.72	–
298.15 K, 15200 kPa	–	1236.7 ± 2.4
298.15 K, 30390 kPa	–	1323.7 ± 2.4
298.15 K, 45590 kPa	–	1400.1 ± 2.4
298.15 K, 60790 kPa	–	1469.1 ± 2.5
298.15 K, 91180 kPa	–	1589.7 ± 2.6
298.15 K, 101320 kPa	–	1626.4 ± 2.6
298.16 K, 75990 kPa	–	1531.6 ± 2.5
303.1 K, 101 kPa	–	1108.5 ± 1.6
303.13 K, 60790 kPa	–	1453.5 ± 2.5
303.13 K, 91180 kPa	–	1575.6 ± 2.6
303.13 K, 101320 kPa	–	1612.6 ± 2.6
303.14 K, 30390 kPa	–	1306.4 ± 2.4
303.14 K, 45590 kPa	–	1383.7 ± 2.4
303.14 K, 75990 kPa	–	1517 ± 2.5
303.15 K, 101 kPa	675.293 ± 0.72	–
303.15 K, 15200 kPa	–	1217.8 ± 2.4
308.08 K, 101 kPa	–	1087 ± 1.6
308.12 K, 45590 kPa	–	1367.9 ± 2.4
308.12 K, 75990 kPa	–	1502.7 ± 2.5
308.12 K, 91180 kPa	–	1561.5 ± 2.6
308.12 K, 101320 kPa	–	1599.1 ± 2.6
308.13 K, 15200 kPa	–	1199.2 ± 2.4
308.13 K, 30390 kPa	–	1289.3 ± 2.4
308.13 K, 60790 kPa	–	1438.4 ± 2.5
308.15 K, 101 kPa	671.015 ± 0.73	–
313.06 K, 101 kPa	–	1065.6 ± 1.6
313.1 K, 30390 kPa	–	1272.5 ± 2.4
313.1 K, 45590 kPa	–	1352.5 ± 2.4
313.1 K, 60790 kPa	–	1423.8 ± 2.5
313.1 K, 75990 kPa	–	1488.7 ± 2.5
313.1 K, 91180 kPa	–	1548.1 ± 2.6
313.1 K, 101320 kPa	–	1585.7 ± 2.6
313.11 K, 15200 kPa	–	1180.7 ± 2.4
313.15 K, 101 kPa	666.684 ± 0.73	–
318.15 K, 101 kPa	662.324 ± 0.74	–
318.28 K, 15200 kPa	–	1161.8 ± 2.4
318.28 K, 30390 kPa	–	1255.3 ± 2.4
318.28 K, 45590 kPa	–	1336.5 ± 2.5
318.28 K, 60790 kPa	–	1408.6 ± 2.5
318.28 K, 75990 kPa	–	1474.4 ± 2.5
318.28 K, 91180 kPa	–	1534.3 ± 2.6
318.28 K, 101320 kPa	–	1572.3 ± 2.6
318.35 K, 101 kPa	–	1043 ± 1.6

CCCCCCCCCCCC [dodecane]
Settings	refractive index
[1]	1.4197 ± 0.0008

[2]
Settings	mass density [kg/m3]	speed of sound [m/s]
292.87 K, 15200 kPa	–	1384.9 ± 2.4
292.87 K, 30390 kPa	–	1457.9 ± 2.4
292.87 K, 45590 kPa	–	1524.1 ± 2.4
292.87 K, 60790 kPa	–	1584.5 ± 2.5
292.87 K, 75990 kPa	–	1640.7 ± 2.5
292.87 K, 91180 kPa	–	1692.8 ± 2.5
292.87 K, 101320 kPa	–	1725.8 ± 2.6
292.89 K, 101 kPa	–	1299.5 ± 1.6
293.15 K, 101 kPa	748.921 ± 0.63	–
298.15 K, 101 kPa	745.269 ± 0.63	–
298.16 K, 101 kPa	–	1278.9 ± 1.6
298.16 K, 15200 kPa	–	1365.9 ± 2.4
298.16 K, 30390 kPa	–	1440 ± 2.4
298.16 K, 45580 kPa	–	1507 ± 2.4
298.16 K, 60790 kPa	–	1568 ± 2.5
298.16 K, 75990 kPa	–	1625.2 ± 2.5
298.16 K, 91180 kPa	–	1677.7 ± 2.5
298.16 K, 101320 kPa	–	1711.1 ± 2.6
303.14 K, 30390 kPa	–	1423.8 ± 2.4
303.14 K, 45590 kPa	–	1491.4 ± 2.4
303.14 K, 60790 kPa	–	1553.1 ± 2.5
303.14 K, 75990 kPa	–	1610.9 ± 2.5
303.14 K, 91180 kPa	–	1664.1 ± 2.5
303.14 K, 101320 kPa	–	1697.4 ± 2.6
303.15 K, 101 kPa	741.636 ± 0.64	1259.3 ± 1.6
303.15 K, 15200 kPa	–	1348.5 ± 2.4
308.12 K, 101 kPa	–	1240.2 ± 1.6
308.13 K, 75990 kPa	–	1596.8 ± 2.5
308.13 K, 91180 kPa	–	1650.9 ± 2.6
308.14 K, 15200 kPa	–	1331 ± 2.4
308.14 K, 30390 kPa	–	1407.6 ± 2.4
308.14 K, 45590 kPa	–	1476.3 ± 2.4
308.14 K, 60790 kPa	–	1538.6 ± 2.5
308.15 K, 101 kPa	738.031 ± 0.64	–
313.1 K, 101 kPa	–	1221 ± 1.6
313.15 K, 101 kPa	734.369 ± 0.65	–
313.21 K, 15200 kPa	–	1313.4 ± 2.4
313.21 K, 30390 kPa	–	1391.1 ± 2.4
313.21 K, 45590 kPa	–	1460.8 ± 2.4
313.21 K, 60790 kPa	–	1524.1 ± 2.5
313.21 K, 75990 kPa	–	1582.5 ± 2.5
313.21 K, 91180 kPa	–	1637.3 ± 2.5
313.21 K, 101320 kPa	–	1671.3 ± 2.6
318.15 K, 101 kPa	730.715 ± 0.65	–
318.29 K, 15200 kPa	–	1296.2 ± 2.4
318.29 K, 30390 kPa	–	1375 ± 2.4
318.29 K, 45590 kPa	–	1445.5 ± 2.4
318.29 K, 60790 kPa	–	1509.7 ± 2.5
318.29 K, 91180 kPa	–	1624.1 ± 2.6
318.29 K, 101320 kPa	–	1658.5 ± 2.6
318.3 K, 75990 kPa	–	1568.8 ± 2.5
318.39 K, 101 kPa	–	1200.9 ± 1.6

CCCCCCC [heptane] + CCCCCCCCCCCC
[3]
Settings	mass density [kg/m3]	speed of sound [m/s]
292.83 K, 101 kPa	–	1153.2 ± 1.6
292.88 K, 45590 kPa	–	1417.7 ± 2.4
292.88 K, 60790 kPa	–	1485.5 ± 2.5
292.88 K, 75990 kPa	–	1547.2 ± 2.5
292.88 K, 91180 kPa	–	1605 ± 2.6
292.88 K, 101320 kPa	–	1641.2 ± 2.6
292.89 K, 15200 kPa	–	1257 ± 2.4
292.89 K, 30390 kPa	–	1342.4 ± 2.4
293.15 K, 101 kPa	683.803 ± 0.71	–
298.12 K, 101 kPa	–	1130.1 ± 1.6
298.15 K, 101 kPa	679.548 ± 0.72	–
298.15 K, 15200 kPa	–	1236.7 ± 2.4
298.15 K, 30390 kPa	–	1323.7 ± 2.4
298.15 K, 45590 kPa	–	1400.1 ± 2.4
298.15 K, 60790 kPa	–	1469.1 ± 2.5
298.15 K, 91180 kPa	–	1589.7 ± 2.6
298.15 K, 101320 kPa	–	1626.4 ± 2.6
298.16 K, 75990 kPa	–	1531.6 ± 2.5
303.1 K, 101 kPa	–	1108.5 ± 1.6
303.13 K, 60790 kPa	–	1453.5 ± 2.5
303.13 K, 91180 kPa	–	1575.6 ± 2.6
303.13 K, 101320 kPa	–	1612.6 ± 2.6
303.14 K, 30390 kPa	–	1306.4 ± 2.4
303.14 K, 45590 kPa	–	1383.7 ± 2.4
303.14 K, 75990 kPa	–	1517 ± 2.5
303.15 K, 101 kPa	675.293 ± 0.72	–
303.15 K, 15200 kPa	–	1217.8 ± 2.4
308.08 K, 101 kPa	–	1087 ± 1.6
308.12 K, 45590 kPa	–	1367.9 ± 2.4
308.12 K, 75990 kPa	–	1502.7 ± 2.5
308.12 K, 91180 kPa	–	1561.5 ± 2.6
308.12 K, 101320 kPa	–	1599.1 ± 2.6
308.13 K, 15200 kPa	–	1199.2 ± 2.4
308.13 K, 30390 kPa	–	1289.3 ± 2.4
308.13 K, 60790 kPa	–	1438.4 ± 2.5
308.15 K, 101 kPa	671.015 ± 0.73	–
313.06 K, 101 kPa	–	1065.6 ± 1.6
313.1 K, 30390 kPa	–	1272.5 ± 2.4
313.1 K, 45590 kPa	–	1352.5 ± 2.4
313.1 K, 60790 kPa	–	1423.8 ± 2.5
313.1 K, 75990 kPa	–	1488.7 ± 2.5
313.1 K, 91180 kPa	–	1548.1 ± 2.6
313.1 K, 101320 kPa	–	1585.7 ± 2.6
313.11 K, 15200 kPa	–	1180.7 ± 2.4
313.15 K, 101 kPa	666.684 ± 0.73	–
318.15 K, 101 kPa	662.324 ± 0.74	–
318.28 K, 15200 kPa	–	1161.8 ± 2.4
318.28 K, 30390 kPa	–	1255.3 ± 2.4
318.28 K, 45590 kPa	–	1336.5 ± 2.5
318.28 K, 60790 kPa	–	1408.6 ± 2.5
318.28 K, 75990 kPa	–	1474.4 ± 2.5
318.28 K, 91180 kPa	–	1534.3 ± 2.6
318.28 K, 101320 kPa	–	1572.3 ± 2.6
318.35 K, 101 kPa	–	1043 ± 1.6
